Test results reported in patent publication US20250302768A1, “NANOPARTICLE DOPED POLYETHYLENE GLYCOL BASED GELS AND MEDICAL DEVICES FOR DRUG DELIVERY” (priority 2022, published 2025).

Assays:
[1] = drug elution from cured MAPLAPEG gel strips in phosphate buffered saline; assay type: physicochemical; settings: eluted from MAPLAPEG polymers; 250 mg gel strip in 5 ml phosphate buffered saline; sampled 0.25 to 28 days; n=4
Experimental: Methacrylated poly(lactic acid-co-ethylene glycol) (MAPLAPEG) macromers were synthesized with microwave synthesis with a lactate degree of polymerization (DP) of 4 and PEG400 (DP 9.5). Chitosan nanoparticles (CNP) were synthesized using ionic gelation and ketorolac tromethamine was loaded into the CNPs. For polymerization, the MAPLAPEG macromers were mixed with 10 mg/mL Phenylbis(2,4,6-trimethylbenzoyl) phosphine oxide initiator at a ratio of 1 μL each 20 μL of macromer and exposed to UV radiation at 395 nm for two minutes to form a 250 mg gel strip with the dimensions of 5 mm×3 mm×20 mm. The test groups were formed as follows: (1) gel and antibiotic; (2) gel loaded with antibiotic and CNPs; (3) gel loaded with antibiotic and (4) gel and ketorolac loaded CNPs. Gels loaded with only ketorolac loaded CNPs were used as controls for ketorolac elution. […] Eluent concentrations were measured using UV visible spectrometry. Gentamicin sulfate samples were treated with O-phthalaldehyde and the fluorescence was measured after complexation.
FIGS. 1A-1C depict the release rates of vancomycin, gentamicin and ketorolac from the gels loaded only with antibiotics and those loaded also with particles and those loaded with particles containing ketorolac. […] The sample size for each group was four and standard deviation was calculated for each sample group.

[2] = system: Staphylococcus aureus; settings: reference values the eluted concentrations are compared with; cited from earlier work

gentamicin
time eluted concentration maintained above the MIC [1]: 4 weeks
minimum inhibitory concentration (MIC) [2]: 1.5 to 3 µg/mL

CN[C@H](CC(C)C)C(=O)N[C@H]1C(=O)N[C@@H](CC(N)=O)C(=O)N[C@H]2C(=O)N[C@H]3C(=O)N[C@H](C(=O)N[C@H](C(=O)O)c4cc(O)cc(O)c4-c4cc3ccc4O)[C@H](O)c3ccc(c(Cl)c3)Oc3cc2cc(c3O[C@@H]2O[C@H](CO)[C@@H](O)[C@H](O)[C@H]2O[C@H]2C[C@](C)(N)[C@H](O)[C@H](C)O2)Oc2ccc(cc2Cl)[C@H]1O [Vancomycin, vancomycin]
time eluted concentration maintained above the MIC [1]: 4 weeks
minimum inhibitory concentration (MIC) [2]: 0.5 to 2 µg/mL
